In patent US12568969B2, “Pyridine compounds for controlling invertebrate pests” (FMC Corporation, priority 2020, dated 2026):

Legend:
Assay type in all cases: in vivo
[1] = system: green peach aphid (Myzus persicae (Sulzer)); experiment: Test D: control of green peach aphid on radish plant, spray; conditions: Myzus persicae, 144 h, 6 days; for mortality at 50 ppm: sprayed at 50 ppm; for mortality at 250 ppm: sprayed at 250 ppm
Experimental: (§1) Test compounds were formulated using a solution containing 10% acetone, […] and 300 ppm Activator 909 non-ionic surfactant (Loveland Products, Loveland, Colorado, USA). The formulated compounds were applied in 1 mL of liquid through an atomizer nozzle positioned 1.27 cm (0.5 inches) above the top of each test unit. Test compounds were sprayed at the rates indicated, and each test was replicated three times.
For evaluating control of green peach aphid (Myzus persicae (Sulzer)) through contact and/or systemic means, the test unit consisted of a small open container with a 12-15-day-old radish plant inside. This was pre-infested by placing on a leaf of the test plant 30-40 aphids on a piece of leaf excised from a culture plant (cut-leaf method). The aphids moved onto the test plant as the leaf piece desiccated. After pre-infestation, the soil of the test unit was covered with a layer of sand.
[…] After spraying of the formulated test compound, each test unit was allowed to dry for 1 hour and then a black, screened cap was placed on top. The test units were held for 6 days in a growth chamber at 19-21° C. and 50-70% relative humidity. Each test unit was then visually assessed for insect mortality.

[2] = system: corn planthopper (Peregrinus maidis (Ashmead)); experiment: whole plant or invertebrate; conditions: Peregrinus maidis, 144 h, 6 days; for mortality at 50 ppm: sprayed at 50 ppm; for mortality at 250 ppm: sprayed at 250 ppm; for mortality at 10 ppm: sprayed at 10 ppm
Experimental: as §1
For evaluating control of corn planthopper (Peregrinus maidis (Ashmead)) through contact and/or systemic means, the test unit consisted of a small open container with a 3-4-day-old corn (maize) plant inside. White sand was added to the top of the soil prior to application of the test compound.
Test compounds were formulated and sprayed at 250 and/or 50 ppm and/or 10 ppm. After spraying of the formulated test compound, the test units were allowed to dry for 1 h before they were post-infested with ˜15-20 nymphs (18-to-21-day-old). A black, screened cap was placed on the top of each test unit, and the test units were held for 6 days in a growth chamber at 22-24° C. and 50-70% relative humidity. Each test unit was then visually assessed for insect mortality.

[3] = system: cotton melon aphid (Aphis gossypii (Glover)); experiment: whole plant or invertebrate; conditions: Aphis gossypii, 144 h, 6 days; for mortality at 250 ppm: sprayed at 250 ppm; for mortality at 50 ppm: sprayed at 50 ppm
Experimental: as §1
[…] This was pre-infested with 30-40 insects on a piece of leaf according to the cut-leaf method, and the soil of the test unit was covered with a layer of sand.
Test compounds were formulated and sprayed at 250 and/or 50 ppm. After spraying, the test units were maintained in a growth chamber for 6 days at 19° C. and 70% relative humidity. Each test unit was then visually assessed for insect mortality.

[4] = system: sweetpotato whitefly (Bemisia tabaci (Gennadius)); experiment: Test F: control of sweetpotato whitefly on cotton plant, spray; conditions: 312 h, 13 days; for mortality at 50 ppm: sprayed at 50 ppm; for mortality at 250 ppm: sprayed at 250 ppm
Experimental: as §1
For evaluating control of the sweetpotato whitefly (Bemisia tabaci (Gennadius)) through contact and/or systemic means, the test unit consisted of a small open container with a 12-14-day-old cotton plant inside. Prior to the spray application, both cotyledons were removed from the plant, leaving one true leaf for the assay. Adult whiteflies were allowed to lay eggs on the plant and then were removed from the test unit. Cotton plants infested with at least 15 eggs were submitted to the test for spraying.
Test compounds were formulated and sprayed at 250 and/or 50 ppm. After spraying, the test units were allowed to dry for 1 hour. The cylinders were then removed, and the units were taken to a growth chamber and held for 13 days at 28° C. and 50-70% relative humidity. Each test unit was then visually assessed for insect mortality.

| SMILES | mortality at 50 ppm [1] | mortality at 250 ppm [1] | mortality at 50 ppm [2] | mortality at 250 ppm [2] | mortality at 250 ppm [3] | mortality at 50 ppm [3] | mortality at 10 ppm [2] | mortality at 50 ppm [4] | mortality at 250 ppm [4] |
| --- | --- | --- | --- | --- | --- | --- | --- | --- | --- |
| Fc1cncc(-n2cncn2)c1C(F)c1ccc(SC(F)(F)F)cc1 (stereo not shown) [Compound 2] | ≥ 80% | ≥ 80% | ≥ 80% | ≥ 80% | ≥ 80% |  |  |  |  |
| Cc1ccn(-c2cncc(F)c2C(F)c2ccc(SC(F)(F)F)cc2)n1 (stereo not shown) [Compound 5] |  | ≥ 80% | ≥ 80% | ≥ 80% |  |  |  |  |  |
| Cc1cnn(-c2cncc(F)c2C(F)c2ccc(SC(F)(F)F)cc2)c1 (stereo not shown) [Compound 6] |  |  | ≥ 80% | ≥ 80% |  |  |  |  |  |
| FC(c1ccc(OC(F)(F)F)cc1)c1ccncc1-n1ccnn1 (stereo not shown) [Compound 10] |  |  | ≥ 80% | ≥ 80% |  |  |  |  |  |
| COC(c1ccc(OC(F)(F)F)cc1)c1c(Cl)cncc1-n1nccn1 (stereo not shown) [Compound 16] | ≥ 80% | ≥ 80% | ≥ 80% | ≥ 80% | ≥ 80% | ≥ 80% |  |  |  |
| Fc1cncc(-c2ccc[nH]2)c1C(F)c1ccc(OC(F)(F)F)cc1 (stereo not shown) [Compound 26] |  |  | ≥ 80% | ≥ 80% |  |  |  |  |  |
| Cc1cncc(-n2nccn2)c1C(F)c1ccc(OC(F)(F)F)cc1 (stereo not shown) [Compound 38] |  | ≥ 80% | ≥ 80% | ≥ 80% | ≥ 80% | ≥ 80% | ≥ 80% |  |  |
| Fc1cncc(-c2nc[nH]n2)c1C(F)c1ccc(OC(F)(F)F)cc1 (stereo not shown) [Compound 40] |  |  | ≥ 80% |  |  |  |  |  |  |
| Fc1cncc(-c2ccsc2)c1C(F)c1ccc(OC(F)(F)F)cc1 (stereo not shown) [Compound 46] |  |  | ≥ 80% |  |  |  | ≥ 80% |  |  |
| Fc1cncc(-c2cscn2)c1C(F)c1ccc(OC(F)(F)F)cc1 (stereo not shown) [Compound 49] |  |  | ≥ 80% | ≥ 80% | ≥ 80% |  | ≥ 80% |  |  |
| COC(c1ccc(OC(F)(F)F)cc1)c1c(Cl)cncc1-n1cccn1 (stereo not shown) [Compound 52] |  |  |  |  | ≥ 80% |  |  |  |  |
| O=S(=O)(c1ccc(C(F)c2c(F)cncc2-n2nccn2)cc1)C(F)(F)F (stereo not shown) [Compound 54] | ≥ 80% | ≥ 80% |  |  | ≥ 80% | ≥ 80% |  |  |  |
| CCn1ccc(-c2cncc(F)c2C(F)c2ccc(OC(F)(F)F)cc2)n1 (stereo not shown) [Compound 57] |  |  | ≥ 80% |  | ≥ 80% |  |  |  |  |
| O=S(=O)(c1ccc(C(F)c2c(Br)cncc2-n2nccn2)cc1)C(F)(F)F (stereo not shown) [Compound 64] |  |  | ≥ 80% |  | ≥ 80% |  |  |  |  |
| COC(c1ccc(OC(F)(F)F)cc1)c1c(Br)cncc1-n1nccn1 (stereo not shown) [Compound 65] |  |  | ≥ 80% |  |  |  |  |  |  |
| FC(c1ccc(SC(F)(F)F)cc1)c1ccncc1-n1ccnn1 (stereo not shown) [Compound 68] |  | ≥ 80% |  |  | ≥ 80% | ≥ 80% |  |  |  |
| COC(c1ccc(SC(F)(F)F)cc1)c1c(F)cncc1-n1cccn1 (stereo not shown) [Compound 70] |  | ≥ 80% | ≥ 80% | ≥ 80% | ≥ 80% | ≥ 80% | ≥ 80% |  |  |
| COC(c1ccc([S+]([O-])C(F)(F)F)cc1)c1c(F)cncc1-n1cccn1 (stereo not shown) [Compound 72] |  | ≥ 80% |  |  | ≥ 80% |  |  |  |  |
| [O-][S+](c1ccc(C(F)c2c(F)cncc2-n2cccn2)cc1)C(F)(F)F (stereo not shown) [Compound 73] |  |  |  |  | ≥ 80% | ≥ 80% |  |  |  |
| COC(c1ccc([S+]([O-])C(F)(F)F)cc1)c1c(F)cncc1-n1cncn1 (stereo not shown) [Compound 74] | ≥ 80% | ≥ 80% |  |  | ≥ 80% | ≥ 80% |  |  |  |
| COC(c1ccc(SC(F)(F)F)cc1)c1c(F)cncc1-c1nccs1 (stereo not shown) [Compound 75] |  |  |  | ≥ 80% | ≥ 80% |  |  |  |  |

| SMILES | mortality at 50 ppm [1] | mortality at 250 ppm [1] | mortality at 50 ppm [2] | mortality at 250 ppm [2] | mortality at 250 ppm [3] | mortality at 50 ppm [3] | mortality at 10 ppm [2] | mortality at 50 ppm [4] | mortality at 250 ppm [4] |
| --- | --- | --- | --- | --- | --- | --- | --- | --- | --- |
| COC(c1ccc(SC(F)(F)F)cc1)c1c(F)cncc1-c1ncco1 (stereo not shown) [Compound 76] |  |  | ≥ 80% | ≥ 80% | ≥ 80% | ≥ 80% |  |  |  |
| Fc1cncc(-c2nccs2)c1C(F)c1ccc(SC(F)(F)F)cc1 (stereo not shown) [Compound 77] |  | ≥ 80% | ≥ 80% | ≥ 80% | ≥ 80% |  |  |  |  |
| COC(c1ccc(SC(F)(F)F)cc1)c1c(F)cncc1-c1cc(C)no1 (stereo not shown) [Compound 82] |  |  |  | ≥ 80% |  |  |  |  |  |
| COC(c1ccc(SC(F)(F)F)cc1)c1c(F)cncc1-c1ncon1 (stereo not shown) [Compound 83, 3-[5-fluoro-4-[methoxy-[4-(trifluoromethylsulfanyl)phenyl]methyl]-3-pyridyl]-1,2,4-oxadiazole] |  | ≥ 80% | ≥ 80% | ≥ 80% | ≥ 80% | ≥ 80% |  |  |  |
| FC(c1ccc(SC(F)(F)F)cc1)c1c(Br)cncc1-n1cccn1 (stereo not shown) [Compound 85] |  |  | ≥ 80% | ≥ 80% | ≥ 80% | ≥ 80% |  |  |  |
| FC(c1ccc(SC(F)(F)F)cc1)c1c(Br)cncc1-n1nccn1 (stereo not shown) [Compound 86] | ≥ 80% | ≥ 80% | ≥ 80% | ≥ 80% | ≥ 80% | ≥ 80% |  |  |  |
| FC(c1ccc(SC(F)(F)F)cc1)c1c(Br)cncc1-n1ccnn1 (stereo not shown) [Compound 87] |  | ≥ 80% |  |  |  |  |  |  |  |
| Fc1cncc(C2OCCO2)c1C(F)c1ccc(SC(F)(F)F)cc1 (stereo not shown) [Compound 96] |  | ≥ 80% | ≥ 80% | ≥ 80% | ≥ 80% | ≥ 80% | ≥ 80% |  |  |
| [O-][S+](c1ccc(C(F)c2c(I)cncc2-n2nccn2)cc1)C(F)(F)F (stereo not shown) [Compound 97] |  | ≥ 80% |  |  | ≥ 80% | ≥ 80% |  |  |  |
| Fc1cncc(C2OCCCO2)c1C(F)c1ccc(SC(F)(F)F)cc1 (stereo not shown) [Compound 98] |  |  | ≥ 80% | ≥ 80% |  |  | ≥ 80% |  |  |
| FC(c1ccc(SC(F)(F)F)cc1)c1c(Cl)cncc1-n1cccn1 (stereo not shown) [Compound 102] |  |  |  |  | ≥ 80% | ≥ 80% |  |  |  |
| FC(c1ccc(SC(F)(F)F)cc1)c1c(Cl)cncc1-c1ncno1 (stereo not shown) [Compound 106] |  |  | ≥ 80% | ≥ 80% | ≥ 80% | ≥ 80% | ≥ 80% |  |  |
| CC(C)(C)c1ccc(C(F)c2c(Cl)cncc2-n2nccn2)cc1 (stereo not shown) [Compound 110] |  |  | ≥ 80% | ≥ 80% |  |  | ≥ 80% |  |  |
| Fc1cncc(-c2cccs2)c1C(F)c1ccc(SC(F)(F)F)cc1 (stereo not shown) [Compound 111] |  |  | ≥ 80% | ≥ 80% | ≥ 80% | ≥ 80% | ≥ 80% |  |  |
| Cc1sccc1-c1cncc(F)c1C(F)c1ccc(SC(F)(F)F)cc1 (stereo not shown) [Compound 113] |  |  | ≥ 80% | ≥ 80% | ≥ 80% | ≥ 80% | ≥ 80% |  |  |
| Cc1cscc1-c1cncc(F)c1C(F)c1ccc(SC(F)(F)F)cc1 (stereo not shown) [Compound 114] |  |  | ≥ 80% | ≥ 80% |  |  | ≥ 80% |  |  |
| COC(c1ccc(Br)cc1)c1c(F)cncc1-n1nccn1 (stereo not shown) [Compound 117] |  |  |  |  |  |  |  | ≥ 70% | ≥ 70% |
| COC(c1ccc(SC(F)(F)F)cc1)c1c(Br)cncc1-n1ccnn1 (stereo not shown) [Compound 134] |  |  |  |  |  |  |  | ≥ 70% | ≥ 70% |
| COC(c1ccc(OC(F)(F)F)cc1)c1c(F)cncc1-c1ncno1 (stereo not shown) [Compound 138] |  |  | ≥ 80% | ≥ 80% |  |  |  |  |  |
| COC(c1ccc(C(C)(C)C)cc1)c1c(F)cncc1-c1ncno1 (stereo not shown) [Compound 139] |  |  | ≥ 80% | ≥ 80% |  |  |  |  |  |
